Values of other authors, collected in patent EP0502666B2, “Ingestible compositions containing water-soluble, high-viscosity grade cellulose ethers” (THE UNIVERSITY OF MICHIGAN, priority 1991, dated 1992).

## CN(C)C(=N)N=C(N)N [metformin]
In vivo
  patients with side effects that lead to the withdrawal of the drug: ~5%
Usually transient
  patients with gastrointestinal side effects, initially: 5-20%
